Among the data in patent US20240199648A1, “MAP4K1 INHIBITORS” (Blueprint Medicines Corporation, priority 2021, published 2024) are EC50 and IC50 values, retold here.

The subject of one experiment is Primary T Cell. Put plainly: T cell enhancement of cytokines: IL2 measurement (HTRF) in expanded CD3+ T cells stimulated with anti-CD3/anti-CD28. As to conditions: Homo sapiens, T-cell, 24 h, plate-bound anti-CD3 and soluble anti-CD28, 24 h, read-out: IL-2 Primary T Cell EC50. Type of experiment: cell-based, human. The method, then: T cells are isolated from whole blood of healthy donors by immunomagnetic negative selection following manufacture's protocol (StemCell Technologies, human T cell isolation kit). Purity of isolated cells is assessed by flow cytometry and yields 95-98% CD3^+ T cells. For expansion of T cells, 1×10^6 cells/well are plated in serum free cell expansion media (ThermoFisher) containing 30U of recombinant human IL2 (R&D) and stimulated with 25 ul of CD3/CD28 beads (Invitrogen) in 24 well plates for 3-4 days. T cells are then expanded in 175 cm flasks and maintained at a cell density of 1 to 2.5×10^6 cells/ml days by addition of ⅔ of fresh media every 2-3 days. After 10-14 days, cells are frozen in BamBanker freezing media (Thermo) and stored in liquid nitrogen.
For IL2 measurement, expanded CD3+ T cells are dispensed at 100K cells/well (cultured in X-VIVO 10 Serum-free media) and are stimulated with plate-bound anti-CD3 and soluble anti-CD28 in the presence of vehicle or compound of the disclosure at various concentrations for 24 h. As outlined in the manufacturer's protocol (Cisbio), 16 μL of conditioned media is transferred to a white 384-well low volume plate. Following a 24 h incubation with the anti-IL2 antibodies, the homogenous time resolved fluorescence (HTRF) is measured.
(Time-resolved FRET reads energy transfer from a long-lived donor to a nearby acceptor.)

A further experiment has as its target T1, MAP4K1 (HPK1) (Homo sapiens, UniProt Q92918).
T1 construct: purchased Invitrogen
Put plainly: Inhibition of MAP4K1 biochemical enzymatic activity (EZReader 2 electrophoretic mobility shift assay). The conditions noted are these: HPK1 (Invitrogen), S6K2tide 1.5 μM, 120 min; ATP 26 μM or 1000 μM (not stated which). From the text: MAP4K1 (HPK1) and relevant off-target enzymatic activity was monitored using the Perkin Elmer electrophoretic mobility shift technology platform—the EZReader 2. […] Within the linear, steady-state phase of the kinase enzymatic reaction, the mixed pool of phosphorylated (product) and non-phosphorylated (substrate) peptides was passed through the microfluidic system of the PerkinElmer EZ Reader 2, under an applied electric potential difference. The presence of the phosphate group on the product peptide provided a difference in mass and charge between that of the substrate peptide, resulting in a separation of the substrate and product pools in the sample (Perrin et al. 2010). As the product and substrate peptide mixture passes the lasers within the instrument, these pools are detected (λex=488 nm, λem=568 nm) and resolved as separate peaks. The ratio between these peaks reflects the activity of the compound at that concentration, in that well, under those conditions.
Inhibitors were dissolved in 100% DMSO at a stock concentration of 10 mM. A 100×, 10-point, 4-fold serial dilution of each inhibitor was created in 100% DMSO either manually or on a Hamilton STAR liquid handler, starting at a relevant concentration, usually 1 mM. A volume of 0.130 μL of each concentration was transferred to the relevant wells of a 384-well plate (Greiner 781 201) in diplicate using a TTPLabtech Mosquito nano-litre dispenser. Using a Multidrop Combi, the remaining constituents of the kinase reaction were added to the 130 nL of dosed compound as follows (see table below for final reaction details):
Enzyme activity assays at the ^APPKM for ATP or 1 mM ATP: In each well of a 384-well plate, 0.1-15 nM of untreated enzyme was incubated in a total of 13 μL of buffer (100 mM HEPES pH 7.5, 0.015% Brij 35, 10 mM MgCl2, 1 mM DTT) with 1.5 μM fluorescent peptid and 20-1000 μM ATP, at 25° C., for 60-180 minutes in the presence or absence of a dosed concentration series of compound (1% DMSO final concentration). The kinase reactions were stopped by the addition of 70 μl of Stop buffer (100 mM HEPES pH 7.5, 0.015% Brij 35, 35 mM EDTA and 0.2% of Coating Reagent 3 (Caliper Lifesciences)). The plates were read on a Caliper EZReader 2 as described above.
In general terms: In EMSA bound probe runs differently from free probe, usually more slowly.

By EC50 is commonly meant the midpoint of the concentration-response curve. Usually IC50 stands for the midpoint of a concentration-inhibition curve.

T1 sequence (Q92918 whole entry): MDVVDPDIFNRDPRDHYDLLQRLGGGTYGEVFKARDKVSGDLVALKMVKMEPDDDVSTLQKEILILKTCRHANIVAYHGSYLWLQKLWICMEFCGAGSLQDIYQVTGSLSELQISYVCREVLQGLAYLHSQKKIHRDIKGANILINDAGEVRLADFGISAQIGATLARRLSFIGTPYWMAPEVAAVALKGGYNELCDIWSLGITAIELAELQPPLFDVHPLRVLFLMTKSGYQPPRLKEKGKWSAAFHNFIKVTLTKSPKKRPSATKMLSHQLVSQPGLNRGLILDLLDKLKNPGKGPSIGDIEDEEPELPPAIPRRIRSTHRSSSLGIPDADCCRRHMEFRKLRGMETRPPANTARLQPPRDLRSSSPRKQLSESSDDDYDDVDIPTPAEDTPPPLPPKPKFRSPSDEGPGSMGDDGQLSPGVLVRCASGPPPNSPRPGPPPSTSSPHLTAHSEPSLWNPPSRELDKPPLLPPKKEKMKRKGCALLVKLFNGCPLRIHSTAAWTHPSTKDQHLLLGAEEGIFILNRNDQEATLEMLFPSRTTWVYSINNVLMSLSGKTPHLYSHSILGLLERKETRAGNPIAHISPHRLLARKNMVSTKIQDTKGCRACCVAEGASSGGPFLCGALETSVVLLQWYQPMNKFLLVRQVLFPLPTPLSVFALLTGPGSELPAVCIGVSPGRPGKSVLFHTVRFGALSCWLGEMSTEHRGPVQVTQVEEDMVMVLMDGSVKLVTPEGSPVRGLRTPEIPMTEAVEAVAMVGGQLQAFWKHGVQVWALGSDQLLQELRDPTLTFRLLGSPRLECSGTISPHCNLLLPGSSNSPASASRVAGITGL

Regarding `COC1CN(C(=O)[C@H]2C[C@@H](Oc3ncc(C(C)(C)N)c4cc(Nc5ccc6c(n5)[C@@H](C)[C@H](C)OC6=O)ncc34)C2)C1` [Compound 92], the EC50 in the experiment on Primary T Cell worked out at 34 nM. For the same compound, on MAP4K1 (HPK1), the IC50 came out at 0.17 nM.

Consider `CC(=O)N1CC(Oc2ncc(C(C)(C)N)c3cc(Nc4ccc5c(n4)[C@@H](C)C(C)(C)OC5=O)ncc23)C1` [Compound 4, (R)-2-((8-((1-Acetylazetidin-3-yl)oxy)-5-(2-aminopropan-2-yl)-2,7-naphthyridin-3-yl)amino)-7,7,8-trimethyl-7,8-dihydro-5H-pyrano[4,3-b]pyridin-5-one], for which the EC50 in the experiment with Primary T Cell was determined as 19.9 nM. Besides, at MAP4K1 (HPK1), the IC50 is 0.15 nM.

Regarding `CC[C@@](C)(N)c1cnc(OC2CN(C(=O)C3CC3)C2)c2cnc(Nc3ccc4c(n3)[C@@H](C)C(C)(C)OC4=O)cc12` [Compound 70], the EC50 with Primary T Cell stood at 12.5 nM. Also, at MAP4K1 (HPK1), the IC50 came out at 0.18 nM.

As to `CC[C@@H](N)c1cnc(OC2CN(C(=O)C3CC3)C2)c2cnc(Nc3ccc4c(n3)[C@@H](C)C(C)(C)OC4=O)cc12` (stereo in doubt) [Compound 53], in the experiment on Primary T Cell, the EC50 stood at 57.4 nM. In addition, the IC50 on MAP4K1 (HPK1) stood at 0.54 nM.

As to `CC[C@@](C)(N)c1cnc(OC2CN(C(C)=O)C2)c2cnc(Nc3ccc4c(n3)C(C)(C)COC4=O)cc12` [Compound 111], in the experiment on Primary T Cell, the EC50 is 9.6 nM. Further, the IC50 on MAP4K1 (HPK1) worked out at 0.43 nM.

Regarding `C[C@@H]1c2nc(Nc3cc4c(C(C)(C)N)cnc(O[C@@H]5CN(C(=O)[C@@H]6C[C@@H]6F)[C@H]5C)c4cn3)ccc2C(=O)OC1(C)C` [Compound 14], in the experiment with Primary T Cell, the EC50 worked out at 15.3 nM. Also, the IC50 at MAP4K1 (HPK1) came to 0.19 nM.

In the case of `C[C@@H]1c2nc(Nc3cc4c(C(C)(C)N)cnc(OCCCC(=O)N(C)C)c4cn3)ccc2C(=O)OC1(C)C` [Compound 39], the EC50 in the experiment with Primary T Cell came out at 14 nM. For the same compound, the IC50 on MAP4K1 (HPK1) came to 0.14 nM.

On to `C[C@@H]1c2nc(Nc3cc4c(C(C)(C)N)cnc(OCCN5CCCC5=O)c4cn3)ccc2C(=O)OC1(C)C` [Compound 31], for which, in the experiment on Primary T Cell, the EC50 is 42.8 nM. On MAP4K1 (HPK1), the IC50 came to 0.21 nM.

`C[C@@H]1OC(=O)c2ccc(Nc3cc4c(C(C)(C)N)cnc(OC5CN(C(=O)C6COC6)C5)c4cn3)nc2[C@H]1C` [Compound 54]: the EC50 with Primary T Cell is 29.3 nM. In addition, the IC50 at MAP4K1 (HPK1) was 0.21 nM.

Regarding `CCC(=O)N1C[C@@H](Oc2ncc(C(C)(C)N)c3cc(Nc4ccc5c(n4)[C@@H](C)C(C)(C)OC5=O)ncc23)[C@@H]1C` [Compound 118], the EC50 in the experiment on Primary T Cell was 17.7 nM. Besides, on MAP4K1 (HPK1), the IC50 is 0.17 nM.

As for `C[C@@H]1c2nc(Nc3cc4c(C(C)(C)N)cnc(OC5CN(C(=O)N(C)C)C5)c4cn3)ccc2C(=O)OC1(C)C` [Compound 57], in the experiment with Primary T Cell, the EC50 came to 21.1 nM. The IC50 on MAP4K1 (HPK1) was found to be 0.13 nM.

In the case of `COC1CN(C(=O)[C@H]2C[C@@H](Oc3ncc(C(C)(C)N)c4cc(Nc5ccc6c(n5)[C@@H](C)C(C)(C)OC6=O)ncc34)C2)C1` [Compound 15, (R)-2-((5-(2-aminopropan-2-yl)-8-((cis)-3-(3-methoxyazetidine-1-carbonyl)cyclobutoxy)-2,7-naphthyridin-3-yl)amino)-7,7,8-trimethyl-7,8-dihydro-5H-pyrano[4,3-b]pyridin-5-one], the EC50 in the experiment on Primary T Cell was 42 nM. The IC50 on MAP4K1 (HPK1) was 0.13 nM.

Consider `C[C@@H]1c2nc(Nc3cc4c(C(C)(C)N)cnc(OC5CN(C(=O)[C@H]6C[C@H]6F)C5)c4cn3)ccc2C(=O)OC1(C)C` [Compound 13, (R)-2-((5-(2-aminopropan-2-yl)-8-((1-((1R,2R)-2-fluorocyclopropane-1-carbonyl)azetidin-3-yl)oxy)-2,7-naphthyridin-3-yl)amino)-7,7,8-trimethyl-7,8-dihydro-5H-pyrano[4,3-b]pyridin-5-one], for which the EC50 in the experiment with Primary T Cell came out at 23.2 nM. For the same compound, the concentration for half-maximal inhibition (IC50) at MAP4K1 (HPK1) worked out at 0.17 nM.

Take `C[C@@H]1OC(=O)c2ccc(Nc3cc4c(C(C)(C)N)cnc(OC5CN(C(=O)N(C)C)C5)c4cn3)nc2[C@H]1C` [Compound 34]: in the experiment on Primary T Cell, the EC50 was found to be 43.3 nM. For the same compound, the IC50 at MAP4K1 (HPK1) turned out to be 0.19 nM.

For the compound `CC(=O)N1CC(Nc2ncc(C(C)(C)N)c3cc(Nc4ccc5c(n4)[C@@H](C)C(C)(C)OC5=O)ncc23)C1` [Compound 22], the half-maximal effective concentration (EC50) with Primary T Cell came out at 479 nM. The IC50 on MAP4K1 (HPK1) is 0.54 nM.

`CC[C@@](C)(N)c1cnc(OC2CN(C(=O)C3CC3)C2)c2cnc(Nc3ccc4c(n3)[C@@H](C)[C@H](C)OC4=O)cc12` [Compound 49]: in the experiment on Primary T Cell, the EC50 stood at 25.7 nM. Also, the concentration for half-maximal inhibition (IC50) on MAP4K1 (HPK1) came to 0.24 nM.

On to `CC[C@@H](N)c1ccc(OC2CN(C(C)=O)C2)c2cnc(Nc3ccc4c(n3)[C@@H](C)C(C)(C)OC4=O)cc12` (stereo in doubt) [Compound 20], for which the EC50 with Primary T Cell stood at 99.3 nM. Besides, the half-inhibitory concentration (IC50) at MAP4K1 (HPK1) was 0.26 nM.

In the case of `CCC(=O)N1CC(Oc2ncc([C@](C)(N)COC)c3cc(Nc4ccc5c(n4)[C@@H](C)C(C)(C)OC5=O)ncc23)C1` [Compound 123], the EC50 with Primary T Cell came to 60.8 nM. Besides, the IC50 on MAP4K1 (HPK1) was determined as 0.1 nM.

Turning to `C[C@@H]1OC(=O)c2ccc(Nc3cc4c(C(C)(C)N)cnc(OC5CN(C(=O)[C@H]6C[C@H]6F)C5)c4cn3)nc2[C@H]1C` [Compound 9], the EC50 in the experiment with Primary T Cell was 16.8 nM. The IC50 at MAP4K1 (HPK1) was 0.16 nM.

As to `CC[C@@H](N)c1ccc(OC2CN(C(=O)C3CC3)C2)c2cnc(Nc3ccc4c(n3)[C@@H](C)C(C)(C)OC4=O)cc12` (single isomer, unassigned) [Compound 40, (R)-2-((5-((R)-1-Aminopropyl)-8-((1-(cyclopropanecarbonyl)azetidin-3-yl)oxy)isoquinolin-3-yl)amino)-7,7,8-trimethyl-7,8-dihydro-5H-pyrano[4,3-b]pyridin-5-one or (R)-2-((5-((S)-1-aminopropyl)-8-((1-(cyclopropanecarbonyl)azetidin-3-yl)oxy)isoquinolin-3-yl)amino)-7,7,8-trimethyl-7,8-dihydro-5H-pyrano[4,3-b]pyridin-5-one], the EC50 in the experiment with Primary T Cell was found to be 160 nM. The 50% inhibitory concentration (IC50) on MAP4K1 (HPK1) came out at 0.19 nM.

As to `COC[C@@](C)(N)c1cnc(OC2CN(C(C)=O)[C@H]2C)c2cnc(Nc3ccc4c(n3)[C@@H](C)C(C)(C)OC4=O)cc12` (stereo partly shown) [Compound 122], in the experiment with Primary T Cell, the concentration giving a half-maximal response (EC50) came out at 53.7 nM. For the same compound, the IC50 on MAP4K1 (HPK1) was 0.12 nM.

With `C[C@@H]1c2nc(Nc3cc4c(C(C)(C)N)cnc(OC5CC(C)(C(=O)N(C)C)C5)c4cn3)ccc2C(=O)OC1(C)C` (single isomer, unassigned) [Compound 81], the EC50 in the experiment on Primary T Cell was found to be 71.2 nM. At MAP4K1 (HPK1), the IC50 is 0.16 nM.

`CC(=O)N1CC(Oc2ccc(C(C)(C)N)c3cc(Nc4ccc5c(n4)[C@@H](C)C(C)(C)OC5=O)ncc23)C1` [Compound 21, (R)-2-((8-((1-Acetylazetidin-3-yl)oxy)-5-(2-aminopropan-2-yl)isoquinolin-3-yl)amino)-7,7,8-trimethyl-7,8-dihydro-5H-pyrano[4,3-b]pyridin-5-one]: in the experiment on Primary T Cell, the EC50 amounted to 16.8 nM. Moreover, at MAP4K1 (HPK1), the concentration for half-maximal inhibition (IC50) worked out at 0.14 nM.

With `CCC(=O)N1CC(Oc2ncc([C@](C)(N)COC)c3cc(Nc4ccc5c(n4)[C@@H](C)[C@H](C)OC5=O)ncc23)C1` [Compound 120], the concentration giving a half-maximal response (EC50) in the experiment with Primary T Cell was determined as 29.4 nM. Besides, the IC50 at MAP4K1 (HPK1) was found to be 0.25 nM.

With `C[C@@H]1OC(=O)c2ccc(Nc3cc4c(C(C)(C)N)cnc(OC5CN(C(=O)C6CC6)C5)c4cn3)nc2[C@H]1C` [Compound 5], the EC50 with Primary T Cell was 17.7 nM. In addition, the concentration for half-maximal inhibition (IC50) on MAP4K1 (HPK1) turned out to be 0.17 nM.

Regarding `C[C@@H]1c2nc(Nc3cc4c(C(C)(C)N)cnc(O[C@H]5C[C@@H](C(=O)N6CC(F)(F)C6)C5)c4cn3)ccc2C(=O)OC1(C)C` [Compound 100], the EC50 in the experiment on Primary T Cell was found to be 22.1 nM. The IC50 on MAP4K1 (HPK1) turned out to be 0.11 nM.
